The text below walks through data of US8603737B2, “Methods for identifying HCV protease inhibitors” (priority 2008, dated 2013).

In assay [1] the target is T1, A156T mutant of the HCV NS3/4A 1b protease enzyme (Hepatitis C virus genotype 1b, UniProt P26663, A1182T).
T1 construct: 10× stocks of NS3/4A protease enzyme from Bioenza; purchased Bioenza (Mountain View, Calif.)
The experiment in a line: HCV protease FRET assay, A156T mutant. The settings on record: read-out: Inhibition, HCV A156T (IC50). Type of assay: biochemical. On the procedure:
(§1) HCV Protease FRET Assay for Mutated NS3/4A 1b Enzymes
(§2) The protocol is a modified FRET-based assay (v—02) from In Vitro Resistance Studies of HCV Serine Protease Inhibitors, 2004, JBC, vol. 279, No. 17, pp 17508-17514. Inherent potency of compounds was assessed against A156S, A156T, D168A, and D168V mutants of the HCV NS3/4A 1b protease enzyme as follows:
(§3) Assay buffer: 2% CHAPS, 50 mM Tris pH 7.5, 50% glycerol, 2 μM M-2235 (Bachem) substrate. In a 50 μl reaction, add 49 μl assay buffer, 1 μl (1 U) HCV serine protease (Bioenza). Incubate 20 minutes at room temperature. The plate was read at either 350/460 nm (excitation/emission) on a fluorescent micro-plate reader or monitored at one-minute intervals to achieve the kinetic curve.
10× stocks of NS3/4A protease enzyme from Bioenza (Mountain View, Calif.) and 1.13×5-FAM/QXL™520 FRET peptide substrate from Anaspec (San Jose, Calif.) were prepared in 50 mM HEPES, pH 7.8, 100 mM NaCl, 5 mM DTT and 20% glycerol. […] Protease reactions were started with the addition of 45 μL of the FRET substrate and monitored for 120 minutes at λex487/λem514 through Quad^4 monochromoters in a Synergy^4 plate reader from BioTek (Winooski, Vt.). […]

For assay [2], the target named is T2, D168V mutant of the HCV NS3/4A 1b protease enzyme (Hepatitis C virus genotype 1b, UniProt P26663, D1194V).
T2 construct: 10× stocks of NS3/4A protease enzyme from Bioenza; purchased Bioenza (Mountain View, Calif.)
As to the kind of experiment: HCV protease FRET assay, D168V mutant. The class given is biochemical. As to conditions: read-out: Inhibition, HCV D168V (IC50). On the procedure: as §1, §2, §3
10× stocks of NS3/4A protease enzyme from Bioenza (Mountain View, Calif.) and 1.13×5-FAM/QXL™520 FRET peptide substrate from Anaspec (San Jose, Calif.) were prepared in 50 mM HEPES, pH 7.8, 100 mM NaCl, 5 mM DTT and 20% glycerol. 5 μL of each enzyme were pre-incubated in a Corning (#3573) 384-well, black, non-treated microtiter plate (Corning, N.Y.) for 30 min at 25° C. with a 0.5 μL volume of 50% DMSO and serially diluted compounds prepared in 50% DMSO. Protease reactions were started with the addition of 45 μL of the FRET substrate and monitored for 120 minutes at λex487/λem514 through Quad^4 monochromoters in a Synergy^4 plate reader from BioTek (Winooski, Vt.). […] Initial velocity (0 minutes to 30+ minutes) from each reaction was determined from the slope of a plot of relative fluorescence units vs time (minutes) and then plotted against inhibitor concentration to estimate IC50 from log[Inhibitor] vs Response, Variable Slope model in GraphPad Prism from GraphPad Software (San Diego, Calif.). […]
The following protocol was used to generate “apparent” IC50 (IC50—APP)) values as depicted in Table 3, below. […] Protease reactions were immediately started after enzyme addition with the addition of 45 μL of the FRET substrate and monitored for 60-90 minutes at λex485/λem520 in a Synergy^4 plate reader from BioTek (Winooski, Vt.). […]

The test system of assay [3] is HCV RNA replicon in cell line ET (luc-ubi-neo/ET), human Huh7 hepatoma. The experiment in a line: Luciferase reporter replicon assay (Example 5, Method C). Type of assay: cell-based. The settings on record: Hepatitis C virus, Huh-7, 72 hr. The method, then: Method C: Luciferase Reporter Assay Protocol
The compounds were assayed to evaluate the antiviral activity and cytotoxicity of compounds using replicon-derived luciferase activity. This assay used the cell line ET (luc-ubi-neo/ET), which is a human Huh7 hepatoma cell line that contains an HCV RNA replicon with a stable luciferase (Luc) reporter and three cell culture-adaptive mutations. The ET cell line was grown in a 5% CO2 incubator at 37° C. in Dulbecco's modified essential media (DMEM), supplemented with 2 mM L-glutamine (“1%”), nonessential amino acids, 100 U of penicillin/mL, 100 μg of streptomycin/mL (“1%”), 10% fetal bovine serum and 400 μg/mL G418 (Geneticin; Invitrogen).
All cell culture reagents were obtained from Invitrogen (Carlsbad). Cells were trypsinized (1% trypsin:EDTA) and plated out at 5×10^3 cells/well in white 96-well assay plates (Costar) dedicated to cell number (cytotoxicity) or antiviral activity assessments. Test compounds were added at six 3-fold serial dilutions each and the assay was run in DMEM, 5% FBS, 1% pen-strep, 1% glutamine, 1% non essential amino acid. Human interferon alpha-2b (PBL Biolabs, New Brunswick, N.J.) was included in each run as a positive control compound. Cells were processed 72 hr post test compound addition when the cells were still subconfluent. Antiviral activity was measured by analyzing replicon-derived luciferase activity using the Steady-Glo Luciferase Assay System (Promega, Madison, Wis.) according to manufacturer's instruction. The number of cells in each well was determined by Cell Titer Blue Assay (Promega). Compound profile was derived by calculating applicable EC50 (effective concentration inhibiting virus replication by 50%), EC90 (effective concentration inhibiting virus replication by 90%), IC50 (concentration decreasing cell viability by 50%) and SI50 (selective index: […]) values.
In general terms: Reporter assays use an easily measured gene product as a stand-in for the process of interest.

Take `C=C[C@@H]1C[C@]1(NC(=O)[C@@H]1C[C@@H](Oc2cc(-c3ccccc3)nc3cc(OC)ccc23)CN1C(=O)C(NC(=O)OC(C)(C)C)[C@@H](C)OC(=O)/C=C/C)C(=O)NS(=O)(=O)C1CC1` (some centres unmarked) [Compound 3]: the IC50 (as a rule, the concentration at which inhibition is half-maximal) in assay [1] fell in the range of 100 to 1000 nM; in assay [2], 1000 to 10000 nM.
With `C=CC(=O)N(C)C[C@H](NC(=O)OC(C)(C)C)C(=O)N1C[C@H](OC(=O)N2Cc3cccc(F)c3C2)C[C@H]1C(=O)N[C@]1(C(=O)NS(=O)(=O)C2CC2)C[C@H]1C=C` [Compound 4], the concentration for half-maximal inhibition (IC50) was under 10 nM in assay [1]; 10 to 100 nM in assay [2]; under 10 nM in assay [3] (read-out: Inhibition, Replicon (IC50), Method C). Moreover, the 90% effect concentration (IC90) – broadly, the concentration at which the effect reaches the 90% level – in assay [3] (IC90, read-out: Inhibition, Replicon, IC90 value, Method C) is 10 to 100 nM.
As for `CC(C)(C)OC(=O)NC1CN(C(=O)CCl)CCC/C=C\[C@@H]2C[C@@]2(C(=O)NS(=O)(=O)C2CC2)NC(=O)[C@@H]2C[C@@H](OC(=O)N3Cc4cccc(F)c4C3)CN2C1=O` (some centres unmarked) [Compound 8], in assay [3] (EC90, read-out: Inhibition, Replicon, EC90 value), the EC90 (usually the point of the concentration-response curve where the effect stands at 90%) fell in the range of 100 to 1000 nM. In addition, in assay [3] (read-out: Inhibition, Replicon, EC50 value), the half-maximal effective concentration (EC50) (commonly the midpoint of the concentration-response curve) lay within 10 to 100 nM.
